Counter-ions that a name gives are not always drawn.
How the values were obtained:
[1] = system: serum level of PTH (1-34+1-84); assay: PTH measurement in rats with chronic renal failure (5/6 nephrectomy); format: in vivo, rat; details: oral, dose 10 mg/kg, 5/6 nephrectomised rats, ten days after nephrectomy, fasted 16 h, serum 30 min after dosing
Excerpt: II—Rats with Chronic Renal Failure
Chronic renal failure (CRF) was induced in male rats (220-250 g, Sprague-Dawley, CERJ) by ablation of ⅚ of the total renal mass. After anaesthesia (Imalgene 1000), the rats were subjected to exeresis of the right kidney and ablation of both ends of the left kidney, representing approximately ⅔ of the organ).
The incision was cauterised by application of dry ice. To compensate for the loss of blood volume, the animals received an intravenous injection of physiological serum. Two days after the procedure and for the remainder of the trial, the rats were fed with a standard diet (UAR or Safe) and drank phosphate-enriched (1.2%) Volvic® water at will. The procedure was carried out either at the supplier's or at the laboratory. Ten days after nephrectomy, the animals which had been fasting for 16 hours entered the trial. The compounds to be tested or their vehicle were administered orally 30 min. prior to sacrifice. The arterial and venous blood was at 4° C. after decapitation using a guillotine and was centrifuged cold. The sera were frozen a −20° C. After thawing, the serum level of PTH (1-34+1-84) was measured by a radioimmunology test (IRMA kit, rat, Immutopics).

[2] = system: serum level of PTH (1-34+1-84); assay: PTH measurement on intact rats (serum PTH by IRMA after oral administration); format: in vivo, rat; details: for inhibition in vivo at 30 mg/kg: Rattus norvegicus, 0.5 h, oral, male Sprague-Dawley rats fasted 16 h, serum 30 min after dosing, read-out: % PTH reduction at 30 min. relative to the untreated group (intact rat)
Procedure: I—PTH Measurement on Intact Rats
After fasting for 16 hours, some male rats (Sprague-Dawley, 250-300 g, Charles River France or CERJ) received an oral administration of the compounds to be tested or their vehicle. 30 min. after this bolus, the animals were slaughtered by decapitation using a guillotine. The arterial and venous blood was collected at 4° C. and centrifuged cold, then the sera were frozen at −20° C. After thawing, the serum level of PTH (1-34+1-84) was measured by a radioimmunology test (IRMA kit, rat, Immutopics).

Row | Compound | % PTH reduction at 30 min. relative to the untreated group (CRF rat) [1] | inhibition in vivo at 30 mg/kg [2] | PTH level reduced relative to the control group ([2]; oral administration, dose of 30 mg/kg, intact rats, 30 min)
1 | Cn1nnc(-c2cccc(NC(=O)N(CCC(c3ccccc3)c3ccccc3)CCN3CCOCC3)c2)n1 (single isomer, unassigned) [Example 85, 1-(3,3-diphenylpropyl)-3-[3-(2-methyl-2H-tetrazol-5-yl)phenyl]-1-(2-morpholin-4-ylethyl)urea] | 70% | 88% | 
2 | COC(=O)c1cccc(NC(=O)N(CCC(c2ccccc2)c2ccccc2)CCN2CCOCC2)c1 [Example 1, 3-[3-(3,3-diphenylpropyl)-3-(2-morpholin-4-ylethyl)ureido]benzoic acid methyl ester] |  | 56% | 
3 | CC(C)(C)OC(=O)c1cccc(NC(=O)N(CCC(c2ccccc2)c2ccccc2)CCN2CCOCC2)c1 [Example 40, 3-[3-(3,3-diphenylpropyl)-3-(2-morpholin-4-ylethyl)ureido]benzoic acid tertbutyl ester hydrochloride] |  | 21% | 
4 | CCC(=O)c1cccc(NC(=O)N(CCC(c2ccccc2)c2ccccc2)CCN2CCOCC2)c1 [Example 42] |  | 69% | 
5 | O=C(Nc1ccc(Cl)c(C(F)(F)F)c1)N(CCC(c1ccccc1)c1ccccc1)CCN1CCOCC1 [Example 43, 3-(4-chloro-3-trifluoromethylphenyl)-1-(3,3-diphenylpropyl)-1-(2-morpholin-4-ylethyl)urea hydrochloride] |  | 43% | 
6 | CC(C)OC(=O)c1cccc(NC(=O)N(CCC(c2ccccc2)c2ccccc2)CCN2CCOCC2)c1 [Example 48, 3-[3-(3,3-diphenylpropyl)-3-(2-morpholin-4-ylethyl)ureido]benzoic acid isopropyl ester hydrochloride] |  | 32% | 
7 | CC(C)OC(=O)c1cc(NC(=O)N(CCC(c2ccccc2)c2ccccc2)CCN2CCOCC2)ccc1Cl [Example 51, 2-chloro-5-[3-(3,3-diphenylpropyl)-3-(2-morpholin-4-ylethyl)ureido]benzoic acid isopropyl ester hydrochloride] |  | 13% | 
8 | Cl.O=C(Nc1cccc(-c2cnco2)c1)N(CCC(c1ccccc1)c1ccccc1)CCN1CCOCC1 [Example 68, 1-(3,3-diphenylpropyl)-1-(2-morpholin-4-ylethyl)-3-(3-oxazol-5-ylphenyl)urea hydrochloride] | 67% | 94% | 94%
9 | O=C(Nc1cccc(-c2ccco2)c1)N(CCC(c1ccccc1)c1ccccc1)CCN1CCOCC1 [Example 76A, 1-(3,3-diphenylpropyl)-3-(3-furan-2-ylphenyl)-1-(2-morpholin-4-ylethyl)urea hydrochloride] |  | 14% | 
